Measurements as given in PubChem BioAssay (NCI).
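In this assay, cells in 96-well plates receive the compound at five concentrations for 48 hours. Endpoints are linearly interpolated between the surrounding concentrations. At the TGI there is no net growth.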

Assays:
Assay in all cases: inhibition of tumour cell growth, NCI panel, 48 h
786-0 renal = tested on: 786-0 renal
A549 NSCLC = tested on: A549 NSCLC
ACHN renal = tested on: ACHN renal
BT-549 breast = tested on: BT-549 breast
CAKI-1 renal = tested on: CAKI-1 renal
CCRF-CEM leukemia = tested on: CCRF-CEM leukemia
COLO 205 colon = tested on: COLO 205 colon
DU-145 prostate = tested on: DU-145 prostate
EKVX NSCLC = tested on: EKVX NSCLC
HCT-116 colon = tested on: HCT-116 colon
HCT-15 colon = tested on: HCT-15 colon
HOP-62 NSCLC = tested on: HOP-62 NSCLC
HOP-92 NSCLC = tested on: HOP-92 NSCLC
HS 578T breast = tested on: HS 578T breast
HT29 colon = tested on: HT29 colon
IGROV1 ovarian = tested on: IGROV1 ovarian
K-562 leukemia = tested on: K-562 leukemia
KM12 colon = tested on: KM12 colon
LOX IMVI melanoma = tested on: LOX IMVI melanoma
M14 melanoma = tested on: M14 melanoma
MCF7 breast = tested on: MCF7 breast
MDA-MB-231 breast = tested on: MDA-MB-231 breast
MDA-MB-435 = tested on: MDA-MB-435
MDA-N = tested on: MDA-N
MOLT-4 leukemia = tested on: MOLT-4 leukemia
NCI-H23 lung = tested on: NCI-H23 lung
NCI-H460 lung = tested on: NCI-H460 lung
NCI-H522 lung = tested on: NCI-H522 lung
NCI/ADR-RES ovarian = tested on: NCI/ADR-RES ovarian
OVCAR-3 ovarian = tested on: OVCAR-3 ovarian
OVCAR-4 ovarian = tested on: OVCAR-4 ovarian
OVCAR-5 ovarian = tested on: OVCAR-5 ovarian
OVCAR-8 ovarian = tested on: OVCAR-8 ovarian
PC-3 prostate = tested on: PC-3 prostate
RXF 393 renal = tested on: RXF 393 renal
SF-268 CNS = tested on: SF-268 CNS
SF-295 CNS = tested on: SF-295 CNS
SF-539 CNS = tested on: SF-539 CNS
SK-MEL-2 melanoma = tested on: SK-MEL-2 melanoma
SK-MEL-5 melanoma = tested on: SK-MEL-5 melanoma
SK-OV-3 ovarian = tested on: SK-OV-3 ovarian
SN12C renal = tested on: SN12C renal
SNB-19 CNS = tested on: SNB-19 CNS
SNB-75 CNS = tested on: SNB-75 CNS
SR leukemia = tested on: SR leukemia
SW-620 colon = tested on: SW-620 colon
TK-10 renal = tested on: TK-10 renal
U251 CNS = tested on: U251 CNS
UACC-257 melanoma = tested on: UACC-257 melanoma
UACC-62 melanoma = tested on: UACC-62 melanoma
UO-31 renal = tested on: UO-31 renal
A498 renal = tested on: A498 renal
HCC-2998 colon = tested on: HCC-2998 colon
HL-60(TB) leukemia = tested on: HL-60(TB) leukemia
MALME-3M melanoma = tested on: MALME-3M melanoma
NCI-H226 lung = tested on: NCI-H226 lung
RPMI-8226 leukemia = tested on: RPMI-8226 leukemia
SK-MEL-28 melanoma = tested on: SK-MEL-28 melanoma
T-47D breast = tested on: T-47D breast

Question: What does the source list for `COc1c(C)c(C/C=C(\C)CC/C=C(\C)CC/C=C(\C)CC/C=C(\C)CCC=C(C)C)c(OC)c(OC)c1OC`?
Answer: TGI (786-0 renal): 31.8 µM; TGI (A549 NSCLC): 48.1 µM; TGI (ACHN renal): 33.3 µM; TGI (BT-549 breast): > 100 µM; TGI (CAKI-1 renal): > 100 µM; TGI (CCRF-CEM leukemia): 53.8 µM; TGI (COLO 205 colon): > 100 µM; TGI (DU-145 prostate): > 100 µM; TGI (EKVX NSCLC): > 100 µM; TGI (HCT-116 colon): > 100 µM; TGI (HCT-15 colon): > 100 µM; TGI (HOP-62 NSCLC): 37.6 µM; TGI (HOP-92 NSCLC): 31.8 µM; TGI (HS 578T breast): > 100 µM; TGI (HT29 colon): > 100 µM; TGI (IGROV1 ovarian): 60.3 µM; TGI (K-562 leukemia): 55.1 µM; TGI (KM12 colon): 29.1 µM; TGI (LOX IMVI melanoma): 33.7 µM; TGI (M14 melanoma): > 100 µM; TGI (MCF7 breast): > 100 µM; TGI (MDA-MB-231 breast): > 100 µM; TGI (MDA-MB-435): > 100 µM; TGI (MDA-N): > 100 µM; TGI (MOLT-4 leukemia): > 100 µM; TGI (NCI-H23 lung): 44.2 µM; TGI (NCI-H460 lung): 23.2 µM; TGI (NCI-H522 lung): 31.4 µM; TGI (NCI/ADR-RES ovarian): 59.8 µM; TGI (OVCAR-3 ovarian): > 100 µM; TGI (OVCAR-4 ovarian): 52.3 µM; TGI (OVCAR-5 ovarian): > 100 µM; TGI (OVCAR-8 ovarian): 46.1 µM; TGI (PC-3 prostate): > 100 µM; TGI (RXF 393 renal): > 100 µM; TGI (SF-268 CNS): 39.4 µM; TGI (SF-295 CNS): 44.2 µM; TGI (SF-539 CNS): > 100 µM; TGI (SK-MEL-2 melanoma): > 100 µM; TGI (SK-MEL-5 melanoma): 38.1 µM; TGI (SK-OV-3 ovarian): > 100 µM; TGI (SN12C renal): 52.7 µM; TGI (SNB-19 CNS): > 100 µM; TGI (SNB-75 CNS): > 100 µM; TGI (SR leukemia): 54.7 µM; TGI (SW-620 colon): > 100 µM; TGI (TK-10 renal): 69 µM; TGI (U251 CNS): > 100 µM; TGI (UACC-257 melanoma): > 100 µM; TGI (UACC-62 melanoma): > 100 µM; TGI (UO-31 renal): 70.4 µM

Question: What does the source list for `Cc1ccc(F)c2[nH]c(-c3ccccc3)cc(=O)c12`?
Answer: TGI (786-0 renal): > 43.4 µM; TGI (A498 renal): > 100 µM; TGI (A549 NSCLC): > 53.5 µM; TGI (ACHN renal): > 100 µM; TGI (BT-549 breast): > 100 µM; TGI (CAKI-1 renal): > 100 µM; TGI (CCRF-CEM leukemia): > 100 µM; TGI (COLO 205 colon): 24.9 µM; TGI (DU-145 prostate): > 100 µM; TGI (EKVX NSCLC): > 100 µM; TGI (HCC-2998 colon): > 100 µM; TGI (HCT-116 colon): > 100 µM; TGI (HCT-15 colon): > 100 µM; TGI (HL-60(TB) leukemia): > 100 µM; TGI (HOP-62 NSCLC): > 100 µM; TGI (HS 578T breast): > 100 µM; TGI (HT29 colon): > 100 µM; TGI (IGROV1 ovarian): > 100 µM; TGI (K-562 leukemia): > 100 µM; TGI (KM12 colon): > 100 µM; TGI (LOX IMVI melanoma): > 100 µM; TGI (M14 melanoma): > 100 µM; TGI (MALME-3M melanoma): > 100 µM; TGI (MCF7 breast): > 20.4 µM; TGI (MDA-MB-231 breast): > 100 µM; TGI (MDA-MB-435): > 100 µM; TGI (MDA-N): > 100 µM; TGI (MOLT-4 leukemia): > 100 µM; TGI (NCI-H226 lung): > 100 µM; TGI (NCI-H23 lung): > 65.8 µM; TGI (NCI-H460 lung): > 100 µM; TGI (NCI-H522 lung): 38.1 µM; TGI (NCI/ADR-RES ovarian): > 100 µM; TGI (OVCAR-3 ovarian): > 100 µM; TGI (OVCAR-4 ovarian): > 100 µM; TGI (OVCAR-5 ovarian): > 31.3 µM; TGI (OVCAR-8 ovarian): > 100 µM; TGI (PC-3 prostate): > 100 µM; TGI (RPMI-8226 leukemia): > 100 µM; TGI (RXF 393 renal): 21.5 µM; TGI (SF-268 CNS): > 67 µM; TGI (SF-295 CNS): 43.5 µM; TGI (SF-539 CNS): 28.5 µM; TGI (SK-MEL-2 melanoma): > 100 µM; TGI (SK-MEL-28 melanoma): > 40.1 µM; TGI (SK-MEL-5 melanoma): 14.9 µM; TGI (SK-OV-3 ovarian): > 100 µM; TGI (SN12C renal): > 100 µM; TGI (SNB-19 CNS): > 100 µM; TGI (SNB-75 CNS): > 30.6 µM; TGI (SR leukemia): > 100 µM; TGI (SW-620 colon): > 100 µM; TGI (T-47D breast): > 100 µM; TGI (TK-10 renal): > 100 µM; TGI (U251 CNS): > 100 µM; TGI (UACC-257 melanoma): > 100 µM; TGI (UACC-62 melanoma): > 100 µM; TGI (UO-31 renal): > 50.1 µM
